From publication PMC8623395, “Virtual Screening and Molecular Dynamics Simulation Study of Influenza Polymerase PB2 Inhibitors” (Molecules, 2021)

Columns and labels:
A/WSN/33 = test system: A/WSN/33; parameters: method as in PMID 20178582; conditions: cited from earlier work
[1] = test system: influenza virus polymerase PB2 subunit; parameters: method as in PMID 30102858; conditions: cited from earlier work
in vitro = conditions: dog
HK/68 (H3N2) = assay: CPE inhibition assay in MDCK cells, H3N2; assay type: cell-based; conditions: Influenza A virus, 72 h
[2] = test system: influenza A/Puerto Rico/8/1934 (H1N1); assay: CPE inhibition assay in MDCK cells, H1N1; assay type: cell-based; conditions: Influenza A virus, 72 h
[3] = test system: influenza virus ribonucleoprotein (RNP); parameters: method as in PMID 12755627; conditions: cited from earlier work
H3N2 influenza virus = test system: H3N2 influenza virus; parameters: method as in PMID 24134208; conditions: read-out: IC50 for the cytopathic effect (CPE) of H3N2 influenza virus; cited from earlier work

Row | Compound | CC50 at 72 h (in vitro) [µM] | IC50 (HK/68 (H3N2)) [µM] | IC50 [2] [µM] | also measured
1 | O=C(O)c1cc(-c2ccc(Br)cc2)nc2ccc(Cl)cc12 [CSV0C019002] |  |  |  | EC50 (A/WSN/33): 4.27 µM
2 | O=c1oc2cc(O)cc(O)c2c2ccccc12 [Compound D715-2441, 1,3-Dihydroxy-6H-benzo[c]chromen-6-one] |  |  |  | PB2 cap and m7 GTP binding [1]: prevent PB2 cap and m7 GTP binding in a dose-dependent manner
3 | CCC(CC)O[C@@H]1C=C(C(=O)O)C[C@H](N)[C@H]1NC(C)=O [OC, Oseltamivir carboxylate, reference compound] | > 100 | 0.01 | 0.95 | 
4 | Nc1nc2c(c(=O)[nH]1)[n+](Cc1ccccc1)cn2CCCCO [RO0794238] |  |  |  | IC50 [3]: 45 µM
5 | O=C(Nc1nc(-c2ccc(O)cc2)c(CCc2ccccc2)s1)c1cc(O)c(O)c(O)c1 [Str1614] | > 100 | 19.6 ± 0.93 | 26.3 ± 8.69 | 
6 | CCCCOc1ccc(-c2csc(Nc3ccc(CCC(=O)O)cc3)n2)cc1Cl [Str1916] | > 100 | 17 ± 7.94 | 4.82 ± 3.03 | 
7 | O=C(O)c1cc2ccccc2c(Cc2c(O)c(C(=O)O)cc3ccccc23)c1O [Str3107] |  | 45.7 ± 3.01 | 18.2 ± 4.96 | CC50 (in vitro): > 100 µM
8 | O=C(O)c1cccc([C@@H](c2ccc(O)c(C(=O)O)c2)C(Cl)(Cl)Cl)c1 [Str5776] | > 100 | 2.51 ± 0.12 | 3.55 ± 1.23 | 
9 | O=C(CCCCC(=O)c1ccccc1C(=O)O)c1ccccc1 [Str6318] | > 100 | 11.2 ± 3.39 | 28.6 ± 9.46 | 
10 | COc1c2oc3c(OC)ccc(C(=O)N[C@@H](Cc4ccccc4)C(=O)O)c3nc-2cc(N)c1=O [Str7374] | > 100 | 55.4 ± 27 | 31.9 ± 8.15 | 
11 | O=C(O)[C@H]1C2CCC(CC2)[C@@H]1Nc1nc(-c2c[nH]c3ncc(F)cc23)ncc1F [VX-787, reference compound] |  | 0.09 ± 0.02 | 0.004 ± 0.001 | CC50 (in vitro): > 100 µM
12 | C[n+]1cn(CCCCC(=O)O)c2nc(CCCCCC(=O)O)nc([O-])c21 [g] |  |  |  | IC50 (H3N2 influenza virus): 5.3 µM
13 | Cc1nc([O-])c2c(n1)n(CC(=O)c1ccc(O)c(C(=O)O)c1)c[n+]2C [h] |  |  |  | IC50 (H3N2 influenza virus): 0.6 µM
14 | Cc1nc([O-])c2c(n1)n(CC(=O)c1ccc(O)c(C(N)=O)c1)c[n+]2C [i] |  |  |  | IC50 (H3N2 influenza virus): 7.5 µM
